Data from US9329185B2, “Sulfonate compounds” (University of Massachusetts, priority 2013, dated 2016).

Columns and labels:
[1] = Cleavage of reductive-labile protecting group by a reducing agent (TLC analysis); format: physicochemical; conditions: 1 mM reducing agent (dithiothreitol or tris(2-carboxyethyl)phosphine), 30 minutes, room temperature, water (pH 7), analyzed by TLC
Procedure: Compound 1 was treated with 1 mM of a reducing agent, i.e., dithiothreitol or tris(2-carboxyethyl)phosphine, for 30 minutes at room temperature in water (pH 7). The solution was analyzed by TLC. A control experiment was conducted by analyzing an aqueous solution containing Compound 1 without being treated with a reducing agent by using TLC.

| Structure (SMILES) | melting point | cleavage of the protecting group to form a deprotected sulfonate dye [1] |
| --- | --- | --- |
| Cc1ccc(C(OS(=O)(=O)CCCN2CCCc3cc4c(cc32)Oc2cc3c(cc2=N4)CCC[N+]=3CCCS(=O)(=O)OC(c2ccc(C)cc2)C(F)(F)F)C(F)(F)F)cc1 (stereo not drawn) | 220 to 222 °C (dec.) | – |
| CSSc1ccc(C(OS(=O)(=O)c2cccc3c(N(C)C)cccc23)C(F)(F)F)cc1 (stereo not drawn) [Compound 1, 2,2,2-trifluoro-1-(4-(methyldisulfanyl)phenyl)-ethyl 5-(dimethylamino)naphthalene-1-sulfonate] | – | rapidly cleaved |
| Cc1ccc(C(OS(=O)(=O)CCCCl)C(F)(F)F)cc1 (stereo not drawn) [Compound 22, 2,2,2-trifluoro-1-(p-tolyl)ethyl 3-chloropropane-1-sulfonate] | 61 to 63 °C | – |
